Each structure is given as a SMILES string. Values joined by “and” are separate entries in the source; they are usually repeats but may differ in a detail not shown here. Equal entries are not always repeated.

IC50 data for three compounds are collected here from publication PMC4774911, “Biochemical Screening of Five Protein Kinases from Plasmodium falciparum against 14,000 Cell-Active Compounds” (PLoS ONE, 2016).

Some targets named below: MAPK3 (Homo sapiens, UniProt P27361); JAK1 (Homo sapiens, UniProt P23458); PCTK2 (Homo sapiens, UniProt Q00537); BTK (Homo sapiens, UniProt Q06187); CSNK1E (Homo sapiens, UniProt P49674); BMP2K (Homo sapiens, UniProt Q9NSY1).
Holding throughout (assay): biochemical
A further assay concerns the target T1, AURKA (Homo sapiens, UniProt O14965).
T1 sequence (O14965 1-403): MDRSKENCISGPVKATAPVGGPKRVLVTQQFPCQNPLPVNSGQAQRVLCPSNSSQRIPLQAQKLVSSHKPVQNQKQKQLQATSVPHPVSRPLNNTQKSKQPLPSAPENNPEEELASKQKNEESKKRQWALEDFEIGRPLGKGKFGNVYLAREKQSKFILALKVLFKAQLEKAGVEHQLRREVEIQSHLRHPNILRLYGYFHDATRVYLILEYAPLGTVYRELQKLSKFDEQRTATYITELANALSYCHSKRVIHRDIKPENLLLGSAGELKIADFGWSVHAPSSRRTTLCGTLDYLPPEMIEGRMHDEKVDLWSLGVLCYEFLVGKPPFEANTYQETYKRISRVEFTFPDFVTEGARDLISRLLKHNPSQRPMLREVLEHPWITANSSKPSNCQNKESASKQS

The target of the next assay is T2, TTK (Homo sapiens, UniProt P33981).
T2 sequence (P33981 1-857): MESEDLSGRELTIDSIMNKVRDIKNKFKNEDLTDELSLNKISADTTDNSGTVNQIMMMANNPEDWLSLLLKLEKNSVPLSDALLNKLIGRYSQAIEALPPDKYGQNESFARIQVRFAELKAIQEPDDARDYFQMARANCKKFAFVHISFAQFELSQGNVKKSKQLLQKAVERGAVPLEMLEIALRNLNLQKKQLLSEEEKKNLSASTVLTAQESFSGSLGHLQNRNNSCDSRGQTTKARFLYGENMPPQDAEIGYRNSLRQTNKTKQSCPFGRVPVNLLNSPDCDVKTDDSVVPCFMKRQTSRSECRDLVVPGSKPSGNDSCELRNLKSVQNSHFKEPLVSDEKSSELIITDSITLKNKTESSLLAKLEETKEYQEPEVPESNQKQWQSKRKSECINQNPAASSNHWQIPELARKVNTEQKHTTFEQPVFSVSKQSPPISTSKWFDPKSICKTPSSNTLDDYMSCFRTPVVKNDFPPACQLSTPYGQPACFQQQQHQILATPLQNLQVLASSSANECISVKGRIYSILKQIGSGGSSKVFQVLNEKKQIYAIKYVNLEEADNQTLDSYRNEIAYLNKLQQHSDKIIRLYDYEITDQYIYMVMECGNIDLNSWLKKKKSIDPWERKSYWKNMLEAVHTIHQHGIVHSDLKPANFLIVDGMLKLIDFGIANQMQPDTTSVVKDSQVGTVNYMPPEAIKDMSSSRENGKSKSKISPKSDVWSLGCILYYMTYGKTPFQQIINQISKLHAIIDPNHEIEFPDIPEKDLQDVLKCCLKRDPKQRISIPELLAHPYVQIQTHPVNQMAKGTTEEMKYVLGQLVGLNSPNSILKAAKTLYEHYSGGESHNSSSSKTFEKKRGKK

The target in a further assay is T3, LATS1 (Homo sapiens, UniProt O95835).
T3 sequence (O95835 1-1130): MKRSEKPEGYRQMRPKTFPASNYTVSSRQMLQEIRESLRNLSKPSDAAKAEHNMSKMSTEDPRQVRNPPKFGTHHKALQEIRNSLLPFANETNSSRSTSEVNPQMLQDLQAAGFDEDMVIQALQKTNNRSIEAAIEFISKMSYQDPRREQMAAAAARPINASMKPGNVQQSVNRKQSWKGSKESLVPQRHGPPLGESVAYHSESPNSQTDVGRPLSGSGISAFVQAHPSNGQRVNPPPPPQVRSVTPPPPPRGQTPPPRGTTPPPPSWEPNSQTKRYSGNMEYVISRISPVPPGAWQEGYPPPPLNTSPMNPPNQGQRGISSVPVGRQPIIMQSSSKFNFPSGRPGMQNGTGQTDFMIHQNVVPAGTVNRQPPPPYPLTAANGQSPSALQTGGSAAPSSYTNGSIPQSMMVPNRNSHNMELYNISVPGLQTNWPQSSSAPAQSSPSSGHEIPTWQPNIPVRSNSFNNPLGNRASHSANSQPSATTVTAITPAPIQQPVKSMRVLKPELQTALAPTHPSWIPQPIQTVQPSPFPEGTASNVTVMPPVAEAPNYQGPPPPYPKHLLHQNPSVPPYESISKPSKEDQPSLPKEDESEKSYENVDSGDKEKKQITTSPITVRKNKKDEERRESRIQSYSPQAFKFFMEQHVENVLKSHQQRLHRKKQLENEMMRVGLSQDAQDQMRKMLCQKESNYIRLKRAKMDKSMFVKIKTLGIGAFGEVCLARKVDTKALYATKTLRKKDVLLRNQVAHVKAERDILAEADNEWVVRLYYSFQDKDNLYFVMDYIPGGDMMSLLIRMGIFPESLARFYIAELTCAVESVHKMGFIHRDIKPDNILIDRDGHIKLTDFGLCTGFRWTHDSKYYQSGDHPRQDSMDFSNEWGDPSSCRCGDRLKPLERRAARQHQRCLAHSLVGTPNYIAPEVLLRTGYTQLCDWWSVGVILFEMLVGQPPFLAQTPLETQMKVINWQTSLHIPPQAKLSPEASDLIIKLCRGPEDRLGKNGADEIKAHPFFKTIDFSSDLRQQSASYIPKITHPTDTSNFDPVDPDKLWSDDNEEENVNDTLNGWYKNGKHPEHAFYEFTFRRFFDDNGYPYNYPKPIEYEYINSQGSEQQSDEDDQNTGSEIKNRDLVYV

Chain of BMP2K (Q9NSY1 whole entry): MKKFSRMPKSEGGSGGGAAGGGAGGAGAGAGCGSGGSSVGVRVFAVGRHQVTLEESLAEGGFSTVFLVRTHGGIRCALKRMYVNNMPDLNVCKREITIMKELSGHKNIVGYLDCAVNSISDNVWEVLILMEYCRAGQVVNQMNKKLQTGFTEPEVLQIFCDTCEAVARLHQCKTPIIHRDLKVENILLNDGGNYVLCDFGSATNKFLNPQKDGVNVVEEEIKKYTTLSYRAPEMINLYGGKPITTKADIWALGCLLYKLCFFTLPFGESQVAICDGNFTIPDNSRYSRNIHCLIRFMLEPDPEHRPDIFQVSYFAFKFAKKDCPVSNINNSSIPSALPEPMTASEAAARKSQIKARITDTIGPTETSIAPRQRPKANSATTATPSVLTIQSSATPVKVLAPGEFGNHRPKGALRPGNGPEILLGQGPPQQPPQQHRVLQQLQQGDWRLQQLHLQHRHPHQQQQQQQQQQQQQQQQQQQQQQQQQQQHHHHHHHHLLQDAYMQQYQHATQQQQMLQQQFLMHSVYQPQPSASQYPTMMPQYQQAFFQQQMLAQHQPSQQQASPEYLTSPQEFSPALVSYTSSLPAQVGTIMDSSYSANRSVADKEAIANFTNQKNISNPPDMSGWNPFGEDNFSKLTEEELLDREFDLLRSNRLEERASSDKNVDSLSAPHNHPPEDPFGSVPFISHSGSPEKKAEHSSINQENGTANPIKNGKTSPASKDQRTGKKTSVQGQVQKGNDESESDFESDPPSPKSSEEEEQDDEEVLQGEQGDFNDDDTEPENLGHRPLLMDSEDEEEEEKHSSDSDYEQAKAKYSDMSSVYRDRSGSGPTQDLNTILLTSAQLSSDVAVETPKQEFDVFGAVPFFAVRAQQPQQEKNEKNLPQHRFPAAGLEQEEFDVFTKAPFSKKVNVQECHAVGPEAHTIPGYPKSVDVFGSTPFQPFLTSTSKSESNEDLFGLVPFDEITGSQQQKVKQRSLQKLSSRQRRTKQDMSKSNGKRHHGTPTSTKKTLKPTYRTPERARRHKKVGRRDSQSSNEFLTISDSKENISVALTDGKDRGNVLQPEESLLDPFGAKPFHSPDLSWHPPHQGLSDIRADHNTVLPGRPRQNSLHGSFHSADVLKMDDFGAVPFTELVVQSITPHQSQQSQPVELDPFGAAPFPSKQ
Chain of PCTK2 (Q00537 whole entry): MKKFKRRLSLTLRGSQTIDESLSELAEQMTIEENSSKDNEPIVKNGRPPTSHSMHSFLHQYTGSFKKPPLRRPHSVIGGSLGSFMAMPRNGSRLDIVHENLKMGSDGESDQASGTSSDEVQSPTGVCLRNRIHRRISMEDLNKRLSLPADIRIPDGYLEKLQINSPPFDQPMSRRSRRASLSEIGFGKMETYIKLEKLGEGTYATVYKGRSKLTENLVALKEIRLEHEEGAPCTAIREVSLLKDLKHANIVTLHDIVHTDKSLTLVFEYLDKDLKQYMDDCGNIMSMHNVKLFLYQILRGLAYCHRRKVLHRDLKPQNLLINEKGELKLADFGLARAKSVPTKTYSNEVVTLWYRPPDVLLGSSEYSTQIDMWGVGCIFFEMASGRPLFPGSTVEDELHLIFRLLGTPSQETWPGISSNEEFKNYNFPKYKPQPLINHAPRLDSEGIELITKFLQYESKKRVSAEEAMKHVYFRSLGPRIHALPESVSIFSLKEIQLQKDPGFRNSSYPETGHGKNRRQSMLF
Chain of CSNK1E (P49674 whole entry): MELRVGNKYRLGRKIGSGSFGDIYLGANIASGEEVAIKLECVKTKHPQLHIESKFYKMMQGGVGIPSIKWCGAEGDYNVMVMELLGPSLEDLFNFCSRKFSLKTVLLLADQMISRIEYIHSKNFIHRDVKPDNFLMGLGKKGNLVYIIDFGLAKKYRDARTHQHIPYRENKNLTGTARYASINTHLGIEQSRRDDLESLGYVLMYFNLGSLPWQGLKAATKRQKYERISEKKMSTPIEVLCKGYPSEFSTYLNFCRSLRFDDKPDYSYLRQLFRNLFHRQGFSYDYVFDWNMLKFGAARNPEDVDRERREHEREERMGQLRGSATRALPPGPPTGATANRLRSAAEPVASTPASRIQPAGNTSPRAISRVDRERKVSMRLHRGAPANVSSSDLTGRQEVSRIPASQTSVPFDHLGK
Chain of MAPK3 (P27361 whole entry): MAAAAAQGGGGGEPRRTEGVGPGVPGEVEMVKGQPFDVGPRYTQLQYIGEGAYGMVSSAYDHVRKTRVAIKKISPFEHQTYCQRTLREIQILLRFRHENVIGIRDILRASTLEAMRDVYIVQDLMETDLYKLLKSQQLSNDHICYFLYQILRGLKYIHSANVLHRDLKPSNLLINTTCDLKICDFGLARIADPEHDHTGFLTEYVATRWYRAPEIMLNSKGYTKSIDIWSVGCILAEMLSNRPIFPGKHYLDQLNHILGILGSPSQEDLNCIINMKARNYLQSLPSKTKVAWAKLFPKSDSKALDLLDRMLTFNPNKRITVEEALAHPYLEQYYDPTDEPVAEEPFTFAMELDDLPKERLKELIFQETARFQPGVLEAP
Chain of JAK1 (P23458 whole entry): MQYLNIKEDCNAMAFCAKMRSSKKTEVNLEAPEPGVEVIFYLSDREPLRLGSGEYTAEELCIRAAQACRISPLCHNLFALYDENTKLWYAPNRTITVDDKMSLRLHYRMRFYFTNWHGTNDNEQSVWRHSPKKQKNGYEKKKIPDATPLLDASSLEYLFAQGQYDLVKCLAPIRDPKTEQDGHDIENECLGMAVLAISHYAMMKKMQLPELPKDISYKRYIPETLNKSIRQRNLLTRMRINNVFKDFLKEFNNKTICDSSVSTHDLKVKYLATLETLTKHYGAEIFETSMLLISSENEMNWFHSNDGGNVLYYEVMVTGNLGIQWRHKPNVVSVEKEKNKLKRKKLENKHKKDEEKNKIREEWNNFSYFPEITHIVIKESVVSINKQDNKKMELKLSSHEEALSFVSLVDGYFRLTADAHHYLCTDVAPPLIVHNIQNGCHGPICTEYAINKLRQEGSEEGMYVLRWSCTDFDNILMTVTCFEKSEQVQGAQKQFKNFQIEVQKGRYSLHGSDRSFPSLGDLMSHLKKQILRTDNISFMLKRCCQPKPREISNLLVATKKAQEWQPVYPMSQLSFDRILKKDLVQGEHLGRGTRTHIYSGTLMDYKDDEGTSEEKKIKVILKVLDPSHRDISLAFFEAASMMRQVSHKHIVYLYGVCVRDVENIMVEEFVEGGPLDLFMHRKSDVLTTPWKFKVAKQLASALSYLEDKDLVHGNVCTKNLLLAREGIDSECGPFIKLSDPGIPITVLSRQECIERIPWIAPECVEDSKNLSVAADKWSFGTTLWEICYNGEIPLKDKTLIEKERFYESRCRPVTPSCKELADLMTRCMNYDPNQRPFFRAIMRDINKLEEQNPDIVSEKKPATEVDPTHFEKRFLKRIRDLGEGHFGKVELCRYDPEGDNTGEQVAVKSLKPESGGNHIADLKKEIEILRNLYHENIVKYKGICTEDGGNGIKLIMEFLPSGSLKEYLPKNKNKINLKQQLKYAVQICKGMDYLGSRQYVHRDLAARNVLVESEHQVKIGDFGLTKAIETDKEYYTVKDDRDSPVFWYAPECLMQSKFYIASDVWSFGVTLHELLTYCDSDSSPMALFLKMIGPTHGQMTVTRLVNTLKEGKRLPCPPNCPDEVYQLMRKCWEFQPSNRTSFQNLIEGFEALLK
Chain of BTK (Q06187 whole entry): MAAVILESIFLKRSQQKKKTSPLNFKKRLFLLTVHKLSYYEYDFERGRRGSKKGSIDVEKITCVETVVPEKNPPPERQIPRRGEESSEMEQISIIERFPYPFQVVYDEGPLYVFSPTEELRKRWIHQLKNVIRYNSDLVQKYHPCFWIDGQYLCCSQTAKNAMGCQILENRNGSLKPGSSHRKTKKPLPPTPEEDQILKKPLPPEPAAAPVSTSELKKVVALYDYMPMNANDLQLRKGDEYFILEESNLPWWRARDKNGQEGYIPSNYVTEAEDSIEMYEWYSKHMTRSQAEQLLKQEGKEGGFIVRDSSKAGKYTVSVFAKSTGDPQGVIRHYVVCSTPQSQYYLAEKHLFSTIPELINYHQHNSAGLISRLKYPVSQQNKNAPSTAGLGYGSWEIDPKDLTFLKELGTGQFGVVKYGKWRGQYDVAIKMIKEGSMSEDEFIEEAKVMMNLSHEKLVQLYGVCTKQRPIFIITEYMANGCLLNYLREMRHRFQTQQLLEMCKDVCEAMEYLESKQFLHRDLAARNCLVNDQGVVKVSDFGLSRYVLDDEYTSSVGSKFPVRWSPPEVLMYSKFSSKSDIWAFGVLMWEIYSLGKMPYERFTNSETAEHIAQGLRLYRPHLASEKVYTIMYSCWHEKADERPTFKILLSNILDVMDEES

For the compound `CN1CCN(c2ccc(Nc3ncc(C#N)c(Nc4ccccc4C(N)=O)n3)cc2)CC1.Cl` [TCMDC-134116], the IC50 (in general, the point on the concentration scale where inhibition reaches its midpoint) at AURKA was ≤ 0.032 µM and 0.052 µM; at MAPK3 it was more than 20 µM; at TTK it was 0.54 µM and 0.44 µM; against JAK1 it was 0.053 µM and 0.079 µM; against LATS1, 0.21 µM; against PCTK2, 0.076 µM and 0.11 µM. Moreover, the IC50 is 0.6 µM and 0.67 µM at BTK; 1.6 µM and 4.1 µM against CSNK1E; 0.35 µM and 0.29 µM at BMP2K.

With `Cl.NCC1(c2nc(-c3ccc(Cl)c(O)c3)c(-c3ccncc3)[nH]2)CCCCC1` [TCMDC-141154], the IC50 was more than 20 µM on AURKA; more than 20 µM against MAPK3; more than 20 µM at TTK; more than 20 µM against JAK1; 1.1 µM at LATS1; more than 20 µM on PCTK2. For the same compound, the IC50 at BTK was more than 20 µM; at CSNK1E, 0.33 µM; on BMP2K, more than 20 µM.

With `CN(C)CC(O)COc1ccc(Nc2ncc([N+](=O)[O-])c(Nc3ccccc3O)n2)cc1.O=C(O)C(F)(F)F` (stereo not drawn) [TCMDC-141399], the IC50 on AURKA is more than 20 µM; at MAPK3, more than 20 µM; against TTK, more than 20 µM; against JAK1, 1.1 µM and 1.4 µM; against LATS1, more than 20 µM; against PCTK2, 1.5 µM and 1.4 µM. The IC50 against BTK, against CSNK1E and on BMP2K was more than 20 µM each time.
